Data set [1] deals with L. infantum (MHOM/MA/67/ITMAP-263) intracellular amastigotes. Kind of data set: Activity against L. infantum MHOM/MA/67/ITMAP-263 intramacrophage amastigotes (luciferase, THP-1). In kind it is cell-based, Leishmania infantum. The note with it: for Selectivity Index CC50/IC50: CC50 THP-1 / IC50 L. infantum MHOM/MA/67/ITMAP-263; for IC50 / inhibition at 10 µM / inhibition at 1 µM: Leishmania infantum; for IC50: THP-1, 72 h, read-out: L. infantum (MHOM/MA/67/ITMAP-263) Intracellular Amastigotes IC50 ± SD; for inhibition at 10 µM / inhibition at 1 µM: THP-1; for inhibition at 10 µM: read-out: Mean % Inhibition ± SD at 10μM; for inhibition at 1 µM: read-out: Mean % Inhibition ± SD at (1 μM) (converted). As for the experimental part:
A cloned line of L. infantum (MOM/ MA671TMAP263) promastigotes were maintained in RPMI 1640 medium supplemented with 10% heat-inactivated foetal bovine serum (FBS), 2 mM L-glutamine, 20 mM HEPES and 1% Penn/Strep. Maintenance of promastigotes was done in T-25 flasks at 26 °C by subpassage at […] every 5−6 days. L. infantum axenic amastigotes expressing episomal luciferase were maintained in MAA/20 (axenic amastigote medium) at 37 °C under a 5% CO2 environment with subpassages every 5 days. LUC-positive parasites were selected by addition of geneticin sulphate (G418) to the culture at 60 μg/mL.
The efficacy of compounds against L. infantum intracellular amastigotes was determined according to the literature with slight modifications. Briefly, 1 × 10^6 THP-1 cell/mL were seeded in a 96 well flat bottom plate (100 µL/well) and differentiated into macrophages by addition of 20 ng/mL of phorbol-myristate 13-acetate (PMA, Sigma, Saint Louis, MI, USA) for 18 h, followed by replacement with fresh medium for 24 h. Then these cells were infected with luciferase-expressing L. infantum axenic amastigotes in a macrophage:amastigotes ratio of 1:10 for 4 h at 37 °C, 5% CO2. Non-internalized parasites were washed and compounds were added at different concentrations in a final volume of 100 µL. After 72 h of incubation, the media was substituted by 100 µL of PBS. Then of 25 µL of Glo-lysis buffer from the Steady-Glo Luciferase Assay System (Promega, Madison, WI, USA) was added mixed and incubated for 10 min with agitation at 100 rpm. Finally, 30 µL of the Steady-Glo reagent (Promega, Madison, WI, USA) was then added to the plate and was incubated for 15 min with agitation at 100 rpm and then the content of each well was transferred to white-bottom 96-well plates. Luminescence intensity was read using a Synergy 2 Multi-Mode Reader (Biotek, Winooski, VT, USA). The antileishmanial effect was evaluated by the determination of the IC50 value (concentration required to inhibit growth in 50%) and calculated by the non-linear regression analysis using GraphPad Prism version 8.1.1 for Windows (GraphPad Software, San Diego CA, USA).

Data set [2] deals with A549 cells. Nature of the data set: Cytotoxicity assay A549 (CellTiter-Glo). Particulars: compounds 10 μM; miltefosine 10 μM or 1 μM. It is filed as cell-based, human. An excerpt: Early ADMET profiling: The early ADMET profiling of the new derivatives involved a group of assays widely used in drug development as part of the preclinical in vitro toxicity studies. In particular our panel included hERG inhibition, five cytochromes P450 (CYP1A2, CYP2C9, CYP2C19, CYP2D6 and CYP3A4), two cell-lines (A549, epithelial human lung adenocarcinoma, WI38 and foetal lung fibroblasts), Aurora B kinase and mitochondrial toxicity, in addition to the parasite relevant toxicity against THP1 macrophages. The compounds were tested at 10 μΜ, whilst the miltefosine control was tested at 10 μΜ or 1 μM. The toxicity of the new click phospholipids is depicted in Figure 3 in a traffic light format (from red through yellow to green for decreasing ADMET liabilities).
Cytotoxicity assay: A549 cells and WI-38 cells were grown on surface-modified T175 cell culture flasks in Dulbecco’s modified Eagle medium with 10% foetal calf serum (FCS), streptomycin (100 μg/mL) and 100 U/mL penicillin G. At about 80% confluency, cells were washed, trypsinized, resuspended and counted in RPMI-1640 medium before seeding (in triplicate) into white 384-well microtiter plates (20 μL) at 500 cells/well and incubated at 37 °C in the presence of 5% CO2 for 24 h. A total of 20 μL/well of CellTiter-Glo (CTG) reagent (Promega Corp., Madison, WI, USA) was added to each well, and plates were read using an EnVision Multilabel 2103 Reader after a 10-min incubation in the dark. Dose–response assays for compounds made use of 11-point curves. Each test compound (200 nL of 10 mM top concentration in 100% v/v DMSO) was added to cells seeded in polystyrene 384-well cell culture microtiter plates using the Echo 550 Liquid Handler and read after 24 h of incubation at 37 °C in the presence of 5% CO2 using CTG as described above. The compounds/positive control (paclitaxel with final concentration of 10 μM and 1% v/v DMSO) and no compound (final 1% v/v DMSO) were added into the 384-well plates (200 nL/well; 1% v/v DMSO) using the Echo 550 Liquid Handler. The raw luminescence signal of each sample was converted into the percentage of cell growth.

The test system of data set [3] is mitochondria of 786-0 cells. Kind of data set: Mitochondrial toxicity assay (MitoTracker Red CMXRos, 786-0 cells). In kind it is cell-based. Particulars: compounds 10 μM, miltefosine 10 μM or 1 μM. Here is the method:
Mitochondrial toxicity assay: This assay made use of the MitoTracker Red CMXRos dye (Thermo Fischer Scientific, Waltham, MA, USA), which stains the mitochondria in live cells and its accumulation is dependent on the presence of a membrane potential. The renal carcinoma 786-0 cell line was used for mitochondrial toxicity screening. Cells were harvested from a 75 cm^2 flask at 80% confluency by washing once with 5 mL of rt PBS and incubating with 1 mL of 0.05% v/v trypsin/0.02% v/v EDTA for 3 min. Cells were suspended in 10 mL of prewarmed cell culture media (RPMI-1 640 supplemented with 10% v/v FCS, 100 U/mL penicillin and 100 μg/mL streptomycin) and counted using a Scepter (Merck Millipore, Darmstadt, Germany). The 786-0 cells were diluted to 75,000 cells/mL and 20 μL of this suspension added to each well of a 384-well plate. Cells were incubated for 36 h at 37 °C and 5% CO2, and compounds were added using a predilution plate. The positive control was valinomycin at a final concentration of 1 μM, with the negative control being DMSO at the same concentration. Ten microliters of compounds and controls were added to cells and incubated for 6 h at 37 °C and 5% CO2 in a humidity controlled atmosphere. After incubation, 10 μL of a 200 nM solution of MitoTracker Red CMXRos in prewarmed cell culture media was added to each well, and the 786-0 cells were incubated for an additional 45 min at 37 °C and 5% CO2. MitoTracker Red CMXRos uptake was measured using an Opera Imaging System. To facilitate automatic image analysis, the layout containing the compound area and the valinomycin and DMSO control areas were created and stored. A sublayout of five evenly dispersed fields per well were used. These settings also included a measurement height of 1 μm, which was stored in an exposure file format. By using the stored settings and files, an automated run was repeatedly created and executed. The images were transferred to a file server and uploaded into Columbus 2.4.0 (PerkinElmer, Waltham, MA. USA) using the built-in helper function and analysed therein.

Counter-ions that a name gives are not always drawn.

Turning to `CCCCCc1cn(CCCCCCCCCCCOP(=O)([O-])OCC[N+](C)(C)C)nn1` [Compound 25, 11-(4-pentyl-1H-1,2,3-triazol-1-yl)undecyl (2-(trimethylammonio)ethyl) phosphate inner salt], in data set [1], the “Selectivity Index CC50/IC50” value is greater than 3 and the IC50 amounted to 34.3 ± 19.4 µM. Moreover, the inhibition at 10 µM in data set [1] (10 μM, 72 h, N.A. = inactive) amounted to 32 ± 19%. The “% cell growth ± SD at 10 μΜ A549” value in data set [2] is on record as 114.88%. Also, in data set [3], the “% toxicity ± SD at 10 μΜ Mitochondria” value is reported as 11.05%.

For `C[N+](C)(C)CCOP(=O)([O-])OCCCCCCCCCCCn1cc(CC2CCCC2)nn1` [Compound 28, 11-(4-(cyclopentylmethyl)-1H-1,2,3-triazol-1-yl)undecyl (2-(trimethylammo nio)ethyl) phosphate inner salt], the “Mean % Inhibition ± SD at 10μM” value in data set [1] (10 μM, 72 h, N.A. = inactive) is “inactive”. Besides, the “% cell growth ± SD at 10 μΜ A549” value in data set [2] was 121.51%. Moreover, the “% toxicity ± SD at 10 μΜ Mitochondria” value in data set [3] is given as 8.99%.

`C[N+](C)(C)CCOP(=O)([O-])OCCCCCCCCCCCn1cc(CC2CCCCC2)nn1` [Compound 29, 11-(4-(cyclohexylmethyl)-1H-1,2,3-triazol-1-yl)undecyl (2-(trimethylammonio)ethyl) phosphate inner salt]: the inhibition at 10 µM in data set [1] (10 μM, 72 h, N.A. = inactive) is 43 ± 1%. For the same molecule, in data set [2], the “% cell growth ± SD at 10 μΜ A549” value was found to be 120.63%. In addition, the “% toxicity ± SD at 10 μΜ Mitochondria” value in data set [3] is recorded as 1.08%.

As for `C[N+](C)(C)CCOP(=O)([O-])OCCCCCn1cc(CCCCCCCCNC(=O)OCc2ccccc2)nn1` [Compound 31, 5-(4-(8-(((benzyloxy)carbonyl)amino)octyl)-1H-1,2,3-triazol-1-yl)pentyl (2-(trimethylammonio)ethyl) phosphate inner salt], the “% cell growth ± SD at 10 μΜ A549” value in data set [2] came to 108.64%. Further, the “% toxicity ± SD at 10 μΜ Mitochondria” value in data set [3] is reported as 5.07%.

In the case of `C[N+](C)(C)CCOP(=O)([O-])OCCCCCCCCCCCn1cc(CCCCCCCCNC(=O)OCc2ccccc2)nn1` [Compound 32, 11-(4-(8-(((benzyloxy)carbonyl)amino)octyl)-1H-1,2,3-triazol-1-yl)undecyl (2-(trimethylammonio)ethyl) phosphate inner salt], the inhibition at 10 µM in data set [1] (10 μM, 72 h, N.A. = inactive) is 5 ± 18%.

For `C[N+](C)(C)CCCOP(=O)([O-])OCCCCCCCCCCCn1cc(CC2CCCCC2)nn1` [Compound 33, 11-(4-(cyclohexylmethyl)-1H-1,2,3-triazol-1-yl)undecyl (3-(trimethylammonio)propyl) phosphate inner salt], in data set [1] (10 μM, 72 h, N.A. = inactive), the inhibition at 10 µM is 12 ± 5%. The “% cell growth ± SD at 10 μΜ A549” value in data set [2] was 114.14%. Besides, the “% toxicity ± SD at 10 μΜ Mitochondria” value in data set [3] is -1 ± 4.35%.

`C[N+](C)(C)CCOP(=O)([O-])OCCCCCCCCCCCn1cc(CCCCCCCCC(=O)O)nn1` [Compound 34, 11-(4-(8-carboxyoctyl)-1H-1,2,3-triazol-1-yl)undecyl (2-(trimethylammonio)ethyl) phosphate inner salt]: in data set [1] (10 μM, 72 h, N.A. = inactive), the inhibition at 10 µM was determined as 10 ± 9%.

For the molecule `C[N+](C)(C)CCOP(=O)([O-])OCCCCCn1cc(CCCCCCCCN)nn1` [Compound 35, 5-(4-(8-aminooctyl)-1H-1,2,3-triazol-1-yl)pentyl (2-(trimethylammonio)ethyl) phosphate inner salt], the “% cell growth ± SD at 10 μΜ A549” value in data set [2] is recorded as 100.96%. For the same molecule, the “% toxicity ± SD at 10 μΜ Mitochondria” value in data set [3] is 6.58%.

For the molecule `CCCCCCCCCCc1cc(CCCCCCCCCCOP(=O)([O-])OCC[N+](C)(C)C)no1` [Compound 41, 10-(5-decylisoxazol-3-yl)decyl (2-(trimethylammonio)ethyl) phosphate inner salt], the inhibition at 10 µM in data set [1] (10 μM, 72 h, N.A. = inactive) stood at 93.7 ± 10%. Further, the “% cell growth ± SD at 10 μΜ A549” value in data set [2] was 85.15%. Besides, in data set [3], the “% toxicity ± SD at 10 μΜ Mitochondria” value was 2.99%.

With `CCCCCCCCc1noc(CCCCCOP(=O)([O-])OCC[N+](C)(C)C)n1` [Compound 53, 5-(3-octyl-1,2,4-oxadiazol-5-yl)pentyl (2-(trimethylammonio)ethyl) phosphate inner salt], the inhibition at 1 µM in data set [1] (72 h) was 34.6%. Further, in data set [1] (10 μM, 72 h, N.A. = inactive), the inhibition at 10 µM came out at 98.4 ± 1%. In addition, the “% cell growth ± SD at 10 μΜ A549” value in data set [2] was 87.74%. The “% toxicity ± SD at 10 μΜ Mitochondria” value in data set [3] is given as “–1.08%”.

On to `CCCCCCCCc1noc(CCCCCCCCCCOP(=O)([O-])OCC[N+](C)(C)C)n1` [Compound 54, 10-(3-octyl-1,2,4-oxadiazol-5-yl)decyl (2-(trimethylammonio)ethyl) phosphate inner salt], for which, in data set [1], the “Selectivity Index CC50/IC50” value amounted to 13.6 and the IC50 is 0.8 ± 0.18 µM. Further, the inhibition at 1 µM in data set [1] (72 h) was 67.1%. The inhibition at 10 µM in data set [1] (10 μM, 72 h, N.A. = inactive) turned out to be 100.4 ± 1%. Besides, the “% cell growth ± SD at 10 μΜ A549” value in data set [2] was 85.82%. In addition, the “% toxicity ± SD at 10 μΜ Mitochondria” value in data set [3] was 8.56%.

For `CCCCCCCc1nnc(CCCCCCCCCCOP(=O)([O-])OCC[N+](C)(C)C)o1` [Compound 65, 10-(5-heptyl-1,3,4-oxadiazol-2-yl)decyl (2-(trimethylammonio)ethyl) phosphate inner salt], in data set [1] (72 h), the inhibition at 1 µM was 4.8%. Moreover, the inhibition at 10 µM in data set [1] (10 μM, 72 h, N.A. = inactive) is 92.9 ± 5%. In addition, the “% cell growth ± SD at 10 μΜ A549” value in data set [2] was 90.48%. Further, in data set [3], the “% toxicity ± SD at 10 μΜ Mitochondria” value turned out to be 40.25%.

`CCCCCCCCCCCc1nnc(CCCCCCCCCCOP(=O)([O-])OCC[N+](C)(C)C)o1` [Compound 66, 2-(trimethylammonio)ethyl (10-(5-undecyl-1,3,4-oxadiazol-2-yl)decyl) phosphate inner salt]: in data set [1] (72 h), the inhibition at 1 µM is 3.3%. Moreover, the inhibition at 10 µM in data set [1] (10 μM, 72 h, N.A. = inactive) came to 94.2 ± 3%. Moreover, in data set [2], the “% cell growth ± SD at 10 μΜ A549” value is given as 90.83%. For the same molecule, the “% toxicity ± SD at 10 μΜ Mitochondria” value in data set [3] is on record as 19.78%.

In general, inhibition refers to the drop in the measured response relative to a control, in per cent.

For the origin of these results see paper PMC8305768, “Design, Synthesis and Antiparasitic Evaluation of Click Phospholipids” (Molecules, 2021).
